Reference: patent publication US9630894B2, “Energy efficient method and apparatus for the extraction of biomolecules from dilute aqueous solution” (DYNASEP INC., priority 2012, dated 2017)

Experiment: DME saturation concentration in fermentation broth
Assay type: physicochemical
Details: fermentation conditions of 38° C.

For `COC` [DME, dimethyl ether], the “amount of DME in the broth (saturation)” value was roughly 2.3 wt. %.
